Measurements published in patent US8193198B2, “Uracil compounds and a herbicide comprising the same” (Korea Research Institute of Chemical Technology, priority 2008, dated 2012).

Columns and labels:
Format in all cases: in vivo
Digitaria ciliaris [1] = experiment: Soil treatment herbicidal activity test; details: Table 7, 32 g a.i./ha, 2 weeks, scale 0 to 100 (complete destruction)
Method: (§1) A compound fertilizer for horticulture (N:P:K=11:10:11) was mixed with sterilized sandy soil (pH 6.1, organic substance 1.0%, clay 21%, silt 17%, sand 52%), 1 g per each pot (350 cm^2). The soil was filled in a square plastic pot, and corn, Poaceae plants including Panicum dichotomiflorum and Digitaria ciliaris, broadleaf plants including Solanum nigrum, Aeschynomene indica, Abutilon theophrasti and cocklebur, or convolvulus rhizome were sown and covered with soil. Soil treatment was carried out by spraying a test formulation 1 day after the sowing, and foliar treatment, 8 to 12 days after the sowing. The test formulation was prepared by dissolving of a test compound in a mixture of 5 wt % of acetone and 1 wt % of an emulsifier, and diluting with water to prepare a wettable powder. 2000 L of the test formulation was sprayed per hectare. The amount of the active compound was adjusted to a desired quantity.
(§2) Following the treatment, the plants were grown for 2 weeks under a greenhouse condition (25-35° C. during the day and 20-25° C. at night, 14 hour light cycle). Herbicidal activity was evaluated in comparison to a non-treated control group according to the following standard: for weeds, 0 (no herbicidal effect) to 100 (complete destruction); and for crops 0 (harmless) to […] (complete destruction).

Sorghum bicolor [2] = experiment: Soil treatment herbicidal activity test; details: Table 7, 32 g a.i./ha, 2 weeks, scale 0 to 100 (complete destruction)
Method: as §1, §2

Solanum nigrum [3] = experiment: Soil treatment herbicidal activity test; details: Table 7, 32 g a.i./ha, 2 weeks, scale 0 to 100 (complete destruction)
Method: as §1, §2

Aeschynomene indica [4] = experiment: Soil treatment herbicidal activity test; details: Table 7, 32 g a.i./ha, 2 weeks, scale 0 to 100 (complete destruction)
Method: as §1, §2

Abutilon theophrasti [5] = experiment: Soil treatment herbicidal activity test; details: Table 7, 32 g a.i./ha, 2 weeks, scale 0 to 100 (complete destruction)
Method: as §1, §2

Cocklebur = experiment: Foliar treatment herbicidal activity test; details: for Herbicidal activity, Cocklebur: foliar treatment, 8 g a.i./ha, 2 weeks
Method: as §1, §2

Digitaria ciliaris [6] = experiment: Foliar treatment herbicidal activity test; details: 2 weeks; for pest or weed control at 8 g/ha / pest or weed control at 16 g/ha: Digitaria ciliaris, 336 h; for pest or weed control at 16 g/ha: Table 6 (III), 16 g a.i./ha
Method: as §1, §2

Sorghum bicolor [7] = experiment: Foliar treatment herbicidal activity test; details: Table 4 (I), 8 g a.i./ha, 2 weeks, scale 0 to 100 (complete destruction)
Method: as §1, §2

Echinochloa crus-galli = experiment: Foliar treatment herbicidal activity test; details: 2 weeks; for pest or weed control at 8 g/ha / pest or weed control at 16 g/ha: Echinochloa crus-galli, 336 h; for pest or weed control at 16 g/ha: Table 6 (III), 16 g a.i./ha
Method: as §1, §2

Solanum nigrum [8] = experiment: Foliar treatment herbicidal activity test; details: 2 weeks, scale 0 to 100 (complete destruction)
Method: as §1, §2

Aeschynomene indica [9] = experiment: Foliar treatment herbicidal activity test; details: 2 weeks, scale 0 to 100 (complete destruction)
Method: as §1, §2

Abutilon theophrasti [10] = experiment: Foliar treatment herbicidal activity test; details: 2 weeks, scale 0 to 100 (complete destruction)
Method: as §1, §2

Panicum dichotomiflorum = experiment: Foliar treatment herbicidal activity test; details: 2 weeks, scale 0 to 100 (complete destruction)
Method: as §1, §2

Corn = experiment: Soil treatment test, crop harm; details: Table 7, 32 g a.i./ha, 2 weeks, crops scale 0 (harmless) to 10 (complete destruction)
Method: as §1, §2

Wheat = experiment: Soil treatment test, crop harm; details: Table 7, 32 g a.i./ha, 2 weeks, crops scale 0 (harmless) to 10 (complete destruction)
Cyperus serotinus = experiment: Foliar treatment herbicidal activity test; details: Table 4 (I), 8 g a.i./ha, 2 weeks, scale 0 to 100 (complete destruction)
monocot weeds = experiment: Foliar treatment herbicidal activity test (summary in text)
Method: as §1, §2

[11] = Table 3, scale 0 (no herbicidal effect) to 100 (complete destruction)
[12] = Table 4 (I), scale 0 to 100 (complete destruction)
[13] = Table 3, 8 g a.i./ha, scale 0 (no herbicidal effect) to 100 (complete destruction)
[14] = Table 4 (I), 8 g a.i./ha, scale 0 to 100 (complete destruction)
[15] = Table 5 (II), 8 g a.i./ha, scale 0 to 100 (complete destruction)
[16] = scale 0 to 100 (complete destruction)

Compound	Herbicidal activity, Cocklebur (Cocklebur; [11])	pest or weed control at 8 g/ha (Digitaria ciliaris [6]; [13])	pest or weed control at 8 g/ha (Echinochloa crus-galli; [13])	pest or weed control at 16 g/ha (Digitaria ciliaris [6]; [16])	pest or weed control at 16 g/ha (Echinochloa crus-galli; [16])	Herbicidal activity, Solanum nigrum (Solanum nigrum [8]; Table 6 (III), 16 g a.i./ha)	Herbicidal activity, Aeschynomene indica (Aeschynomene indica [9]; Table 6 (III), 16 g a.i./ha)	Herbicidal activity, Abutilon theophrasti (Abutilon theophrasti [10]; Table 6 (III), 16 g a.i./ha)	Herbicidal activity, Panicum dichotomiflorum (Panicum dichotomiflorum; Table 6 (III), 16 g a.i./ha)	Herbicidal activity against cocklebur (in words) (Cocklebur)	Herbicidal activity against monocot weeds (in words) (monocot weeds)	also measured
COC(=O)CCNC(=O)C(C)Oc1cc(-n2c(=O)cc(C(F)(F)F)n(C)c2=O)c(F)cc1Cl (centres unmarked) [Compound No. 1, 3-[{2-[2-chloro-5-(3,6-dihydro-3-methyl-2,6-dioxo-4-trifluoromethyl-1(2H)-pyrimidinyl)-4-fluorophenoxy]-1-oxopropyl}amino]propionic acid methyl ester]	100	100%	100%									Herbicidal activity, Digitaria ciliaris (Digitaria ciliaris [1]): 100; Herbicidal activity, Sorghum bicolor (Sorghum bicolor [2]): 100; Herbicidal activity, Solanum nigrum (Solanum nigrum [3]): 100; Herbicidal activity, Aeschynomene indica (Aeschynomene indica [4]): 100; Herbicidal activity, Abutilon theophrasti (Abutilon theophrasti [5]): 100; Herbicidal activity, Cocklebur (Cocklebur; [12]): 100; Herbicidal activity, Digitaria ciliaris (Digitaria ciliaris [6]; [14]): 100; Herbicidal activity, Digitaria ciliaris (Digitaria ciliaris [6]; [15]): 100; Herbicidal activity, Sorghum bicolor (Sorghum bicolor [7]): 97; Herbicidal activity, Echinochloa crus-galli (Echinochloa crus-galli; [15]): 100; Herbicidal activity, Solanum nigrum (Solanum nigrum [8]; Table 5 (II), 8 g a.i./ha): 100; Herbicidal activity, Aeschynomene indica (Aeschynomene indica [9]; Table 4 (I), 8 g a.i./ha): 100; Herbicidal activity, Aeschynomene indica (Aeschynomene indica [9]; Table 5 (II), 8 g a.i./ha): 100; Herbicidal activity, Abutilon theophrasti (Abutilon theophrasti [10]; Table 4 (I), 8 g a.i./ha): 100; Herbicidal activity, Abutilon theophrasti (Abutilon theophrasti [10]; Table 5 (II), 8 g a.i./ha): 100; Herbicidal activity, Panicum dichotomiflorum (Panicum dichotomiflorum; Table 5 (II), 8 g a.i./ha): 100; Crop harm, Corn (Corn): 2; Crop harm, Wheat (Wheat): 3; Herbicidal activity, Cyperus serotinus (Cyperus serotinus): 100
COC(=O)COC(=O)CCNC(=O)C(C)Oc1cc(-n2c(=O)cc(C(F)(F)F)n(C)c2=O)c(F)cc1Cl (centres unmarked) [Compound No. 22, 3-[{2-[2-chloro-5-(3,6-dihydro-3-methyl-2,6-dioxo-4-trifluoromethyl-1(2H)-pyrimidinyl)-4-fluorophenoxy]-1-oxopropyl}amino]propionyloxy acetic acid methyl ester]				85%	100%	100	100	100	100			
CCCCOC(=O)CCNC(=O)C(C)Oc1cc(-n2c(=O)cc(C(F)(F)F)n(C)c2=O)c(F)cc1Cl (centres unmarked) [Compound No. 23, 3-[{2-[2-chloro-5-(3,6-dihydro-3-methyl-2,6-dioxo-4-trifluoromethyl-1(2H)-pyrimidinyl)-4-fluorophenoxy]-1-oxopropyl}amino]propionic acid n-butyl ester]				100%	100%	100	100	100	100			
CCOC(=O)CCNC(=O)C(C)Oc1cc(-n2c(=O)cc(C(F)(F)F)n(C)c2=O)c(F)cc1Cl (centres unmarked) [Compound No. 24, 3-[{2-[2-chloro-5-(3,6-dihydro-3-methyl-2,6-dioxo-4-trifluoromethyl-1(2H)-pyrimidinyl)-4-fluorophenoxy]-1-oxopropyl}amino]propionic acid ethyl ester]												pest or weed control at 8 g/ha (Digitaria ciliaris [6]; [15]): 99%; pest or weed control at 8 g/ha (Echinochloa crus-galli; [15]): 98%; Herbicidal activity, Solanum nigrum (Solanum nigrum [8]; Table 5 (II), 8 g a.i./ha): 100; Herbicidal activity, Aeschynomene indica (Aeschynomene indica [9]; Table 5 (II), 8 g a.i./ha): 100; Herbicidal activity, Abutilon theophrasti (Abutilon theophrasti [10]; Table 5 (II), 8 g a.i./ha): 100; Herbicidal activity, Panicum dichotomiflorum (Panicum dichotomiflorum; Table 5 (II), 8 g a.i./ha): 99
C=CCOC(=O)CCNC(=O)C(C)Oc1cc(-n2c(=O)cc(C(F)(F)F)n(C)c2=O)c(F)cc1Cl (centres unmarked) [Compound No. 25, 3-[{2-[2-chloro-5-(3,6-dihydro-3-methyl-2,6-dioxo-4-trifluoromethyl-1(2H)-pyrimidinyl)-4-fluorophenoxy]-1-oxopropyl}amino]propionic acid allyl ester]				100%	90%	100	100	100	96			
C#CCOC(=O)CCNC(=O)C(C)Oc1cc(-n2c(=O)cc(C(F)(F)F)n(C)c2=O)c(F)cc1Cl (centres unmarked) [Compound No. 26, 3-[{2-[2-chloro-5-(3,6-dihydro-3-methyl-2,6-dioxo-4-trifluoromethyl-1(2H)-pyrimidinyl)-4-fluorophenoxy]-1-oxopropyl}amino]propionic acid propargyl ester]				95%	90%	100	100	100	90			
COC(=O)CCNC(=O)C(C)Sc1cc(-n2c(=O)cc(C(F)(F)F)n(C)c2=O)c(F)cc1Cl (centres unmarked) [Compound No. 36, 3-[{2-[2-chloro-5-(3,6-dihydro-3-methyl-2,6-dioxo-4-trifluoromethyl-1(2H)-pyrimidinyl)-4-fluorophenylthio]-1-oxopropyl}amino]propionic acid methyl ester]												Herbicidal activity, Digitaria ciliaris (Digitaria ciliaris [1]): 100; Herbicidal activity, Sorghum bicolor (Sorghum bicolor [2]): 100; Herbicidal activity, Solanum nigrum (Solanum nigrum [3]): 100; Herbicidal activity, Aeschynomene indica (Aeschynomene indica [4]): 100; Herbicidal activity, Abutilon theophrasti (Abutilon theophrasti [5]): 100; Herbicidal activity, Cocklebur (Cocklebur; [12]): 100; pest or weed control at 8 g/ha (Digitaria ciliaris [6]; [14]): 100%; Herbicidal activity, Sorghum bicolor (Sorghum bicolor [7]): 100; Herbicidal activity, Aeschynomene indica (Aeschynomene indica [9]; Table 4 (I), 8 g a.i./ha): 100; Herbicidal activity, Abutilon theophrasti (Abutilon theophrasti [10]; Table 4 (I), 8 g a.i./ha): 100; Crop harm, Corn (Corn): 0; Crop harm, Wheat (Wheat): 0; Herbicidal activity, Cyperus serotinus (Cyperus serotinus): 100
COC(=O)CNC(=O)C(C)Oc1cc(-n2c(=O)cc(C(F)(F)F)n(C)c2=O)c(F)cc1Cl (centres unmarked) [compound 1]	98	30%	55%							imperfect herbicidal activity	very low herbicidal activity	
COC(=O)C(C)NC(=O)C(C)Oc1cc(-n2c(=O)cc(C(F)(F)F)n(C)c2=O)c(F)cc1Cl (centres unmarked) [compound 2]	70	25%	65%							imperfect herbicidal activity	very low herbicidal activity	
COC(=O)CONC(=O)C(C)Oc1cc(-n2c(=O)cc(C(F)(F)F)n(C)c2=O)c(F)cc1Cl (centres unmarked) [compound 3]	95	10%	30%							imperfect herbicidal activity	very low herbicidal activity	
